In assay [1] the test system is human keratinocytes. The assay is described as follows: Proliferation of human keratinocytes by PMS/MTS (CellTiter 96 AQueous) assay. It counts as cell-based. From the text: Inhibition of proliferating human keratinocytes in culture have been utilized as a system for screening and identifying potential therapeutic agents such as vitamin D derivatives (Kitano et at., 1991) and retinoids (West et at., 1992), for the treatment of inflammatory, proliferative skin diseases (e.g., psoriasis vulgaris, acne vulgaris, hidradenitis suppurativa).
Human keratinocytes were obtained from Clonetics (San Diego, California) and subcultured into a proprietary (Clonetics) medium optimized for cell growth and maintenance. Proliferation of keratinocytes was determined using MTS, 3-(4,5-dimethylthiazol-2-yl)-5-(3-carboxymethoxyphenyl)-2-(4-sulfophen 1)-2H-tetrazolium (PMS/MTS) as described in the CellTiter 96 AQueous Non-Radioactive Cell Proliferation Assay (Promega Inc.). Only viable cells reduce MTS to the soluble formazan, and viable cell numbers correlate with optical density (Cory et at., 1991).
Cells were seeded at 2 to 4×10^4 cells/ml of growth medium in 24 well microtiter plates. Twenty-four hours post-plating cells were treated with vehicle alone (0.1% DMSO) or various concentrations of 15-deoxy-PG J2 was added to each well (quadruplicate samples per concentration) for an additional 4 days. At each time point 100 ul of the PMS/MTS assay mix is added and absorbance at 490 nm was recorded four hours later with a microplate spectrophotometer (BioTek Instrument Co).

The test system of assay [2] is PPARγ. The conditions noted are these: cited from earlier work.
Assay [3] concerns PPARγ. The note with it: cited from earlier work. The source holds these as a separate data set.
For assay [4], the system named is human keratinocytes. Put plainly: Proliferation of adult human keratinocytes in culture (neutral red dye assay, 4 days). The class given is cell-based. The procedure: The use of proliferating human keratinocytes in culture as a test system for determining the utility of a compound for treating hyperproliferative and inflammatory disorders of the skin is well documented (Kitanot et at., Euro. J Clin. Investig. 21:53-58 (1991) and West, et at., J. Investigative Derm. 99(1):95-100 (1992).)
Cell number was assessed at time zero (before treatment) and at the end of the treatment period by the neutral red dye assay. See Kitano, et at., Euro. J. Clin. Investig. 21:53-58 (1991) and West, et at., J. Investigative Derm. 99(1):95-100 (1992). Each condition was performed in 12 replicates, on keratinocytes from three subjects and the results were combined from the three subjects. […] The coordinate plots the cell growth of the keratinocytes as the percentage of controls.

The source of these data is US5981586A, “Methods for treating proliferative and inflammatory skin diseases” (priority 1998, dated 1999).

The structures appear in SMILES notation. “Also recorded” adds a separate entry of the source. Read-outs that look alike come from different tables or passages of the source.

In the case of `CCCCCC=CC=C1C(=O)C=CC1CC=CCCCC(=O)O` (stereo not shown) [15-deoxy-PG J2, 15-deoxy-A-12,14-prostaglandin J2], the inhibition at 2 µM with human keratinocytes [1] (Homo sapiens, Keratinocyte, 96 h, 2 uM, 4 days) stood at 22%. In addition, at 4 µM the inhibition in the assay with human keratinocytes [1] (Homo sapiens, Keratinocyte, 96 h, 4 uM, 4 days) was 51%. Moreover, the inhibition at 8 µM in the assay on human keratinocytes [1] (Homo sapiens, Keratinocyte, 96 h, 8 uM, 4 days) amounted to 76%. For the same compound, in the assay with human keratinocytes [1] (Homo sapiens, Keratinocyte, 96 h, 20 uM, 4 days), the inhibition at 20 µM was found to be 100%. Further, the IC50 in the assay with human keratinocytes [1] (Keratinocyte, 96 h, human keratinocytes, 4 days treatment, read-out: concentration for half-maximal inhibition of growth (IC50)) was roughly 4 µM. In addition, the “% inhibition of proliferation of human keratinocytes” value in the assay on human keratinocytes [1] (concentration not printed in the line (first line of Table 1), 4 days) came out at 5%. Also, the “inhibition of proliferation of human keratinocytes (in words)” value in the assay with human keratinocytes [1] (cultured human keratinocytes, 4 days) is reported as “inhibits the proliferation of human keratinocytes in culture; also recorded: dose-dependent inhibition of proliferation”. Besides, the “activation of PPARγ (in words)” value with PPARγ [2] is on record as “activate PPARγ to varying degrees”.
In the case of `CC(C)(Oc1ccc(CCNC(=O)c2ccc(Cl)cc2)cc1)C(=O)O` [bezofibrate], the “activation of PPARγ (in words)” value in the assay on PPARγ [3] was “known to activate PPARγ”.
For `CC(C)(Oc1ccc(C2CC2(Cl)Cl)cc1)C(=O)O` (stereo not shown) [ciprofibrate], in the assay with PPARγ [3], the “activation of PPARγ (in words)” value was “known to activate PPARγ”.
For `CCOC(=O)C(C)(C)Oc1ccc(Cl)cc1` [clofibrate], in the assay on PPARγ [3], the “activation of PPARγ (in words)” value is on record as “known to activate PPARγ”.
`Cc1c(C)c2c(c(C)c1O)CCC(C)(COc1ccc(CC3SC(=O)NC3=O)cc1)O2` (stereo not shown) [troglitazone]: in the assay on human keratinocytes [4] (0.1, 1.0 and 10 μM, 4 days, compared with vehicle 0.1% DMSO), the “inhibition of keratinocyte proliferation (in words)” value was “dose-dependent inhibition of keratinocyte proliferation; also recorded: dose-dependent and saturable; also recorded: dose response inhibition of cell growth”. Moreover, the IC50 with human keratinocytes [4] (Homo sapiens, Keratinocyte, 96 h, read-out: IC50, antiproliferative effect in human keratinocytes) turned out to be 2.1 µM.

The inhibition is the share of the control response that was lost under treatment.
